Test results taken from patent US7575640B2, “Method for producing sugar and sugar-containing products from sugar-containing plant raw materials” (Zuckerforschung Tulln Gesellschaft m.b.H., priority 2003, dated 2009).
≈ marks a conversion by molar mass, not a printed value. Counter-ions that a name gives are not always drawn. Like-named read-outs stand apart in the source and are kept apart here. Blank lines part the entries; values can stand above or below the molecule they belong to.

Assays:
[1] = test system: thermophilic microorganisms; experiment: germ-inhibiting activity (acid formation) under sugar production conditions, general statements; format: cell-based
Experimental: If at 35-45° C., i.e. at those temperatures, at which it is usually worked in microbiology, a culture medium is inoculated with non-sterile crude juice from a sugar beet extraction, in most cases it is difficult to stop, by the addition of fatty acids, an acid formation recognizable by a drop in the pH (particularly in mixed cultures in which insensitive microorganism can prevail). On the other hand, the acid formation at 55° C. and 65° C. is blocked by fatty acids, depending on the chain lengths, at concentrations of from 4 to 40 mg/l over a period of time of from 1 to 10 hours. While a maximum of C11-C12 is indicated for the effects observed at normal temperature (Ullmann 1975), for thermophilic microorganisms at the higher temperature the effective maximum lies at C14 (myristic acid)
(§1) If a sugar-containing substrate, e.g. a sugar-containing liquid culture medium, as it is common in microbiology, is either non-sterilized or incubated after inoculation with a bacterial strain, an acid formation will occur which is the easiest to recognize by a drop in the pH. The same phenomenon will occur when incubating normal sugar-containing plant juices, e.g. beet juice. In an industrial process, e.g. in the recovery of sugar juice from sugar beets, a drop in the pH by degradation of sugar means a loss of sugar and a need for an alkalizing agent. Moreover, a drop in the pH with an increase in the germ content in the substrate often is associated with an unpleasant gas and nitrite formation. This arrangement also forms an efficient system for determining the germ-inhibiting activity of substances within the scope of the sugar production process.
If during such an acid formation caused by thermophilic microorganisms at higher temperatures, for instance a solution of fatty acid compounds according to the invention is added, the acid formation and the drop in the pH associated therewith will stop starting from a certain concentration of 10 ppm. Thus, the disadvantages associated with the acid formation can be avoided by the addition of myristic acid, e.g., to a sugar-containing substrate. […]

[2] = test system: thermophilic bacteria; experiment: determination of MIC by stepwise addition until stabilization of the pH, 65° C.; format: cell-based, thermophilic bacteria (mixed culture)
Experimental: To illustrate the antimicrobial activity within the scope of sugar production, examples are carried out with […] compounds by way of example. […] Upon the growth of thermophilic bacteria, the pH drops progressively. This indicates a microorganism-caused acid formation. […] The fatty acid compounds used in this Example are myristic acid and lauric acid, and their potassium salts, respectively. In this case, the acids were used both individually and in a 1:1 mixture, the salts were exclusively used in a 1:1 mixture.

[3] = test system: thermophilic bacteria; experiment: pH drop (acid formation) in liquid culture medium inoculated with crude juice from sugar beet extraction, 65° C.; format: cell-based, thermophilic bacteria (mixed culture); details: for behavior in such an example (effect on pH drop): as Example 2, compared with palmitic acid (basic effect lasting only a very short period); for concentration at which the pH drop is stopped / effect reached: additions of 10 mg/l
Experimental: as §1, with “formation.” for “formation. This arrangement also forms an efficient system for determining the germ-inhibiting activity of substances within the scope of the sugar production process.”
A liquid culture medium, as commonly used in microbiology and consisting of 10 g of Bacto-peptone, 5 g of meat extract, 5 g of yeast extract, 1 g of glucose, 1 g of K2HPO4, 0.1 g of MgSO4*7H2O and 0.01 g of FeSO4*7H2O per liter of distilled water, is sterilized in conventional manner for 20 min at 120° C. and inoculated, in a vessel kept at a temperature of 65° C., with 20 ml of crude juice from a large-scale sugar beet extraction, wherein the pH is registered on a recorder. Upon the growth of thermophilic bacteria, the pH drops progressively. This indicates a microorganism-caused acid formation.
A mixed culture according to Example 1 is prepared.

[4] = dissolved in ethanol, 10 mg/l steps, maximum 150 mg/l, 65° C., read-out: Min. Inhibitory Conc. (MIC)
[5] = Time 4.50 h, 3×10 mg/l added between pH 6.74 and 6.49, 65° C.
[6] = Time 4.75 h, total 30 mg/l, 65° C.
[7] = Time 5 h, total 30 mg/l, 65° C.
[8] = Time 6 h, total 30 mg/l, 65° C.
[9] = Time 7 h, total 30 mg/l, 65° C.
[10] = Time 8 h, total 30 mg/l, 65° C.
[11] = Time 9 h, total 30 mg/l, 65° C.
[12] = Time 10 h, total 30 mg/l, 65° C.
[13] = Time 6 h, 10 mg/l as potassium salt added at pH 6.46 (5 h), 65° C.
[14] = Time 7 h, 10 mg/l as potassium salt added at pH 6.46 (5 h), 65° C.
[15] = Time 8 h, 10 mg/l as potassium salt added at pH 6.46 (5 h), 65° C.
[16] = Time 9 h, 10 mg/l as potassium salt added at pH 6.46 (5 h), 65° C.
[17] = Time 11 h, 10 mg/l as potassium salt added at pH 6.46 (5 h), 65° C.
[18] = Time 13 h, 10 mg/l as potassium salt added at pH 6.46 (5 h), 65° C.
[19] = Time 15 h, 10 mg/l as potassium salt added at pH 6.46 (5 h), 65° C.
[20] = Time 17 h, 10 mg/l as potassium salt added at pH 6.46 (5 h), 65° C.
[21] = Time 6.00 h, 10 mg/l added at pH 6.52 (5.10 h), 65° C.
[22] = Time 6.50 h, 10 mg/l added at pH 6.52 (5.10 h), 65° C.
[23] = Time 7 h, 10 mg/l added at pH 6.52 (5.10 h), 65° C.
[24] = Time 8 h, 10 mg/l at pH 6.52 and 4×10 mg/l between pH 6.49 and 6.36, 65° C.
[25] = Time 9 h, total 50 mg/l, 65° C.

SMILES: CCCCCCCCCCCCCC(=O)OC [methyl myristate]
inhibitory concentration [1]: approximately 100 mg/ml

MIC [2, 4]: > 150 mg/L
SMILES: CCCCCCCCCCCCCC(=O)OCC [Ethyl-Myristate, reference compound]

SMILES: CCCCCCCCCCCCCCCCCCCCCC(=O)O [behenic acid, reference compound]
behavior in such an example (effect on pH drop) [3]: does not exhibit any effect

SMILES: CCCCCCCC/C=C\CCCCCCCC(=O)O [oleic acid]
behavior in such an example (effect on pH drop) [3]: Quite similar

SMILES: CCCCCCCCCCCC(=O)O [lauric acid]
MIC ([2]; dissolved in ethanol, steps of 2 mg/l, read-out: Min. Inhibitory Conc. (MIC)): 18 mg/L (≈ 89.9 µM)
MIC ([2]; text summary of Example 9, read-out: MIC (concentration successfully used)): 18000 mg/L (≈ 89900 µM)
effect on pH drop ([3]; 20 mg/l (two additions), mixed culture, 65° C.): does not have any effect
pH [3, 5]: 6.49
ΔpH/h [3, 5]: 1.00
pH [3, 6]: 6.49
ΔpH/h [3, 6]: 0.00
pH [3, 7]: 6.49
ΔpH/h [3, 7]: 0.00
pH [3, 8]: 6.50
ΔpH/h [3, 8]: −0.01
pH [3, 9]: 6.51
ΔpH/h [3, 9]: −0.01
pH [3, 10]: 6.52
ΔpH/h [3, 10]: −0.01
pH [3, 11]: 6.52
ΔpH/h [3, 11]: 0.00
pH [3, 12]: 6.53
ΔpH/h [3, 12]: −0.01
concentration at which the pH drop is stopped / effect reached ([3]; mixed culture, 65° C.): 30 mg/l

MIC [2, 4]: > 150 mg/L
SMILES: CCCCCCCCCCCCCC(=O)OCCC [Propyl-Myristate, reference compound]

SMILES: CCCCCCCCCCCCCC(=O)O [myristic acid as potassium salt, myristic acid]
duration of effectiveness (pH drop stopped) ([3]; 10 mg/l, mixed culture, 65° C.): at least 12 h
effect on pH drop ([3]; 10 mg/l, mixed culture, 65° C.): suddenly and lastingly be stopped
pH [3, 13]: 6.46
ΔpH/h [3, 13]: 0.00
pH [3, 14]: 6.46
ΔpH/h [3, 14]: 0.00
pH [3, 15]: 6.47
ΔpH/h [3, 15]: −0.01
pH [3, 16]: 6.46
ΔpH/h [3, 16]: 0.01
pH [3, 17]: 6.46
ΔpH/h [3, 17]: 0.00
pH [3, 18]: 6.46
ΔpH/h [3, 18]: 0.00
pH [3, 19]: 6.45
ΔpH/h [3, 19]: 0.00
pH [3, 20]: 6.45
ΔpH/h [3, 20]: 0.00

SMILES: CCCCCCCCCCCCCCCC(=O)O [palmitic acid]
duration of effectiveness (pH drop stopped) ([3]; 10 mg/l, mixed culture, 65° C.): 1.5-2 h
effect on pH drop ([3]; 10 mg/l, mixed culture, 65° C.): immediately completely stopped
pH [3, 21]: 6.53
ΔpH/h [3, 21]: −0.01
pH [3, 22]: 6.53
ΔpH/h [3, 22]: 0.00
pH [3, 23]: 6.49
ΔpH/h [3, 23]: 0.08
pH [3, 24]: 6.36
ΔpH/h [3, 24]: 0.13
pH [3, 25]: 6.29
ΔpH/h [3, 25]: 0.07
pH drop ([3]; renewed addition up to total 50 mg/l, retarded from 0.13): 0.07 pH units per hour

SMILES: CCCCCCCCCCC(=O)O [undecanoic acid]
concentration at which the pH drop is stopped / effect reached ([3]; mixed culture, 65° C.): 40 mg/l

SMILES: C/C=C/C=C/C(=O)O [sorbic acid, reference compound]
concentration at which the pH drop is stopped / effect reached ([3]; mixed culture, 65° C.): > 150 mg/l

SMILES: CCCCCCCCCCCCCCCCCC(=O)O [stearic acid]
behavior in such an example (effect on pH drop) [3]: Quite similar

MIC [2, 4]: 10 mg/L (≈ 46.6 µM)
SMILES: CCCCCCCCCCCCCCO [Myristyl Alcohol, 1-tetradecanol]
effective concentration [1]: ≤ 10 ppm

SMILES: CCCCCCCCCCCCCCCCCCO [stearyl alcohol]
effective concentration [1]: markedly higher concentrations have to be employed

SMILES: CCO [alcohol]
amount that impairs such a culture ([3]; mixed culture, 65° C.): 40-60 ml alcohol per liter culture liquid
